Data set [1] can be described thus: logP determination by HPLC (reversed-phase C18), EEC Directive 79/831 Annex V.A8. The class given is physicochemical. Particulars: HPLC reversed-phase C18, 43° C., acidic range pH 2.7. As to the method: The logP values given in the tables and Preparation Examples above are determined in accordance with EEC Directive 79/831 Annex V.A8 by HPLC (High Performance Liquid Chromatography) on a reversed-phase column (C 18). Temperature: 43° C. The determination by LC-MS in the acidic range is carried out at pH 2.7 using 0.1% aqueous formic acid and acetonitrile (contains 0.1% formic acid) as mobile phases; linear gradient from 10% acetonitrile to 95% acetonitrile. Calibration is carried out using unbranched alkan-2-ones (having 3 to 16 carbon atoms) with known logP values (determination of the logP values by the retention times using linear interpolation between two successive alkanones).

In data set [2] the test system is larvae of the mustard beetle (Phaedon cochleariae). Put plainly: Phaedon test (sprayed Chinese cabbage discs). The note with it: for Kill rate after 7d in %: 100 g/ha. The class given is in vivo. As to the method:
(§1) Phaedon Test Solvents: 78 parts by weight of acetone • • 1.5 parts by weight of dimethylformamide Emulsifier: 0.5 part by weight of alkylaryl polyglycol ether To produce a suitable preparation of active compound, 1 part by weight of active compound is mixed with the stated amounts of solvents and emulsifier and the concentrate is diluted with emulsifier-containing water to the desired concentration. Discs of Chinese cabbage (Brassica pekinensis) are sprayed with an active compound preparation of the desired concentration and, after drying, populated with larvae of the mustard beetle (Phaedon cochleariae). After the desired period of time, the activity in % is determined. 100% means that all beetle larvae have been killed; 0% means that none of the beetle larvae have been killed.

The subject of data set [3] is green peach aphid (Myzus persicae). Nature of the data set: Myzus test (MYZUPE spray treatment). The note with it: for Kill rate after 5d in %: 100 g/ha, spray treatment. In kind it is in vivo. As to the method: as §1, with “Myzus” for “Phaedon”, “Test (MYZUPE Spray Treatment)” for “Test”, “pekinensis), which are infested by all stages of the green peach aphid (Myzus persicae)” for “pekinensis)”, “concentration.” for “concentration and, after drying, populated with larvae of the mustard beetle (Phaedon cochleariae).”, “aphids” for “beetle larvae”

For data set [4], the system named is caterpillars of the army worm (Spodoptera frugiperda). Put plainly: Spodoptera frugiperda test (SPODFR spray treatment). The class given is in vivo. Particulars: for Kill rate after 7d in %: 100 g/ha, spray treatment. As to the method:
Spodoptera frugiperda Test (SPODFR Spray Treatment) Solvents: 78 parts by weight of acetone • • 1.5 parts by weight of dimethylformamide Emulsifier: 0.5 part by weight of alkylaryl polyglycol ether To produce a suitable preparation of active compound, 1 part by weight of active compound is mixed with the stated amounts of solvents and emulsifier and the concentrate is diluted with emulsifier-containing water to the desired concentration. Discs of maize leaves (Zea mays) are sprayed with an active compound preparation of the desired concentration and after drying populated with caterpillars of the army worm (Spodoptera frugiperda). After the desired period of time, the activity in % is determined. 100% means that all of the caterpillars have been killed; 0% means that none of the caterpillars have been killed.

In data set [5] the test system is Spodoptera frugiperda larvae. Put plainly: Spodoptera frugiperda test (treatment by watering). The class given is in vivo. Particulars: for Kill rate after 14d in %: 20 ppm, treatment by watering. As to the method: Spodoptera frugiperda Test Solvent: 7 parts by weight of dimethylformamide Emulsifier: 2 parts by weight of alkylaryl polyglycol ether To produce a suitable preparation of active compound, 1 part by weight of active compound is mixed with the stated amounts of solvent and emulsifier and the concentrate is diluted with water to the desired concentration. Maize plants (Zea mays) are watered with an active compound preparation of the desired concentration and infected with Spodoptera frugiperda larvae. After the desired period of time, the kill in % is determined. 100% means that all larvae have been killed; 0% means that none of the larvae have been killed.

For data set [6], the system named is caterpillars of the army worm (Spodoptera exigua). Put plainly: Spodoptera exigua test (leaf dip). The class given is in vivo. As for the experimental part: (§2) Spodoptera exigua Test Solvent: 7 parts by weight of dimethylformamide Emulsifier: 2 parts by weight of alkylaryl polyglycol ether To produce a suitable preparation of active compound, 1 part by weight of active compound is mixed with the stated amounts of solvent and emulsifier and the concentrate is diluted with emulsifier-containing water to the desired concentration. Cabbage leaves (Brassica oleracea) are treated by being dipped into the active compound preparation of the desired concentration and populated with caterpillars of the army worm (Spodoptera exigua) while the leaves are still moist. After the desired period of time, the kill in % is determined. 100% means that all caterpillars have been killed; 0% means that none of the caterpillars have been killed.

Data set [7] deals with caterpillars of the cotton bollworm (Heliothis armigera). Put plainly: Heliothis armigera test (leaf dip). The class given is in vivo. As to the method: as §2, with “Heliothis armigera” for “Spodoptera exigua”, “Soya bean” for “Cabbage”, “(Glycine max.)” for “(Brassica oleracea)”, “cotton bollworm (Heliothis armigera)” for “army worm (Spodoptera exigua)”
For data set [8], the system named is Spodoptera exigua, resistant strain. Nature of the data set: Spodoptera exigua test; resistant strain. In kind it is in vivo. As to the method: Spodoptera exigua Test; Resistant Strain
Solvent: 7 parts by weight of dimethylformamide
Emulsifier: 2 parts by weight of alkylaryl polyglycol ether
To produce a suitable preparation of active compound, 1 part by weight of active compound is mixed with the stated amounts of solvent and emulsifier and the concentrate is diluted with emulsifier-containing water to the desired concentration.
Cabbage leaves (Brassica oleracea) are treated by being dipped into the active compound preparation of the desired concentration and populated with caterpillars of the army worm (Spodoptera exigua, resistant strain) while the leaves are still moist.
After the desired period of time, the kill in % is determined. 100% means that all caterpillars have been killed; 0% means that none of the caterpillars have been killed.

As usually defined, the logP is the decadic logarithm of the partition coefficient of the neutral form, usually between octanol and water. A lower logP goes with a more hydrophilic compound. `O=C(Nc1c(Cl)cc(Cl)cc1C1=NOCCO1)c1cc(Cl)nn1-c1ncccc1Cl` [Example I-1-2] came in with a logP in data set [1] of 3.07. For the same compound, in data set [2], the “activity in the Phaedon test (in words)” value is recorded as “good activity” and the “Kill rate after 7d in %” value is reported as 100%. In addition, in data set [3], the “activity in the Myzus test, spray treatment (in words)” value (from here on “activity in the Myzus test”) is recorded as “good activity” and the “Kill rate after 5d in %” value is 80%. Further, in data set [4], the “activity in the Spodoptera frugiperda test, spray treatment (in words)” value is given as “good activity” and the “Kill rate after 7d in %” value is on record as 100%.

For the compound `Cc1cccc(C2=NOCCO2)c1NC(=O)c1cc(C(F)(F)F)nn1-c1ncccc1Cl` [Example I-1-3], the logP in data set [1] amounted to 3.00. Moreover, in data set [4], the “activity in the Spodoptera frugiperda test, spray treatment (in words)” value is reported as “good activity” and the “Kill rate after 7d in %” value was determined as 100%. For the same compound, in data set [5], the “activity in the Spodoptera frugiperda test, watering (in words)” value is “good activity” and the “Kill rate after 14d in %” value is 95%.

For the compound `Cc1cccc(C2=NOCCO2)c1NC(=O)c1cc(Br)nn1-c1ncccc1Cl` [Example I-1-4], the logP in data set [1] was found to be 2.59. Also, in data set [4], the “activity in the Spodoptera frugiperda test, spray treatment (in words)” value is “good activity” and the “Kill rate after 7d in %” value worked out at 100%.

As for `Cc1cc(Br)cc(C2=NOCCO2)c1NC(=O)c1cc(Cl)nn1-c1ncccc1Cl` [Example I-1-10], the logP in data set [1] is listed as 3.18. The “activity in the Phaedon test (in words)” value in data set [2] was “good activity”. Besides, the “Kill rate after 7d in %” value in data set [2] worked out at 100%; in data set [4], 100%; in data set [6] (20 ppm, 7 d), 100%; in data set [7] (20 ppm, 7 d), 100%; in data set [8] (20 ppm, 7 d, resistant strain), 100%. Besides, in data set [4], the “activity in the Spodoptera frugiperda test, spray treatment (in words)” value is “good activity”. For the same compound, in data set [5], the “activity in the Spodoptera frugiperda test, watering (in words)” value is “good activity”. Besides, the “Kill rate after 14d in %” value in data set [5] is 90%. Also, the “activity in the Spodoptera exigua test (in words)” value in data set [6] is “good activity”. Also, the “activity in the Heliothis armigera test (in words)” value in data set [7] is listed as “good activity”. Also, the “activity in the Spodoptera exigua test, resistant strain (in words)” value in data set [8] was “good activity”.

In turn, `Cc1cc(Br)cc(C2=NOCCO2)c1NC(=O)c1cc(Br)nn1-c1ncccc1Cl` [Example I-1-12] gave a lipophilicity (logP) in data set [1] of 3.24. Besides, in data set [2], the “activity in the Phaedon test (in words)” value was “good activity” and the “Kill rate after 7d in %” value was found to be 100%. Besides, in data set [4], the “activity in the Spodoptera frugiperda test, spray treatment (in words)” value was “good activity” and the “Kill rate after 7d in %” value is given as 100%.

The compound `O=C(Nc1c(Cl)cc(Cl)cc1C1=NOCCO1)c1cc(Br)nn1-c1c(Cl)cccc1Cl` [Example I-1-13] had a logP in data set [1] of 3.98. In data set [2], the “activity in the Phaedon test (in words)” value is reported as “good activity” and the “Kill rate after 7d in %” value came to 100%.

Consider `Cc1cc(Cl)cc(C2=NOCCO2)c1NC(=O)c1cc(C(F)(F)F)nn1-c1ncccn1` [Example I-1-14], for which the logP in data set [1] stood at 2.79.

As for `O=C(Nc1c(Cl)cc(Cl)cc1C1=NOCCO1)c1cc(C(F)(F)F)nn1-c1ncccn1` [Example I-1-15], the logP in data set [1] is 2.80.

For the compound `O=C(Nc1c(Cl)cc(Cl)cc1C1=NOCCO1)c1cc(Br)cn1-c1ncccc1Cl` [Example I-1-21], the logP in data set [1] was 3.48. Also, in data set [2], the “activity in the Phaedon test (in words)” value is “good activity” and the “Kill rate after 7d in %” value was determined as 100%. Further, in data set [4], the “activity in the Spodoptera frugiperda test, spray treatment (in words)” value is on record as “good activity” and the “Kill rate after 7d in %” value was 100%.

As to `Cc1cc(Cl)cc(C2=NOCCO2)c1NC(=O)c1cc(Br)cn1-c1ncccc1Cl` [Example I-1-25], the logP in data set [1] amounted to 3.50. Further, in data set [2], the “activity in the Phaedon test (in words)” value is given as “good activity” and the “Kill rate after 7d in %” value worked out at 83%. Besides, in data set [4], the “activity in the Spodoptera frugiperda test, spray treatment (in words)” value is on record as “good activity” and the “Kill rate after 7d in %” value is listed as 83%.

Take `Cc1cc(I)cc(C2=NOCCN2)c1NC(=O)c1cc(Cl)nn1-c1ncccc1Cl` [Example I-1-26]: the logP in data set [1] was determined as 2.44. In data set [2], the “activity in the Phaedon test (in words)” value is listed as “good activity” and the “Kill rate after 7d in %” value stood at 100%. Also, in data set [3], the “activity in the Myzus test” value is recorded as “good activity” and the “Kill rate after 5d in %” value is 100%. Moreover, in data set [4], the “activity in the Spodoptera frugiperda test, spray treatment (in words)” value was “good activity” and the “Kill rate after 7d in %” value is listed as 100%.

Compound `O=C(Nc1c(Cl)cccc1C1=NOCCN1)c1cc(Br)nn1-c1ncccc1Cl` [Example I-1-27] displayed a logP in data set [1] of 1.89.

For `Cc1cccc(C2=NOCCN2)c1NC(=O)c1cc(Br)cn1-c1ncccc1Cl` [Example I-1-28], the logP in data set [1] amounted to 1.83. Further, in data set [2], the “activity in the Phaedon test (in words)” value is reported as “good activity” and the “Kill rate after 7d in %” value was 100%. Moreover, in data set [4], the “activity in the Spodoptera frugiperda test, spray treatment (in words)” value was “good activity” and the “Kill rate after 7d in %” value is on record as 100%.

`Cc1cc(Br)cc(C2=NOCCN2)c1NC(=O)c1cc(C(F)(F)F)nn1-c1ncccc1Cl` [Example I-1-29] came in with a lipophilicity (logP) in data set [1] of 2.80. Further, in data set [2], the “activity in the Phaedon test (in words)” value is recorded as “good activity” and the “Kill rate after 7d in %” value turned out to be 100%. In data set [3], the “activity in the Myzus test” value is “good activity” and the “Kill rate after 5d in %” value stood at 100%. In data set [4], the “activity in the Spodoptera frugiperda test, spray treatment (in words)” value is given as “good activity” and the “Kill rate after 7d in %” value was 100%.

For the compound `Cc1cc(Br)cc(C2=NOCCN2)c1NC(=O)c1cc(Cl)nn1-c1ncccc1Cl` [Example I-1-30], the logP in data set [1] amounted to 2.35. In data set [2], the “activity in the Phaedon test (in words)” value is on record as “good activity” and the “Kill rate after 7d in %” value stood at 100%. In addition, in data set [3], the “activity in the Myzus test” value is on record as “good activity” and the “Kill rate after 5d in %” value is 100%. For the same compound, in data set [4], the “activity in the Spodoptera frugiperda test, spray treatment (in words)” value is recorded as “good activity” and the “Kill rate after 7d in %” value is recorded as 100%.

(Values after patent publication US8062995B2, “Dioxazine-substituted arylamides” (Bayer CropScience AG, priority 2005, dated 2011).)
